Seven molecules from ChEMBL document CHEMBL1141473, “Tricyclic HIV integrase inhibitors: potent and orally bioavailable C5-aza analogs” (Bioorg Med Chem Lett, 2008) can be followed below.

In brackets after ≈: the same amount, converted by molar mass.

Data set [1] can be described thus: Inhibition of HIV integrase strand transfer activity. Further details: species or system Human immunodeficiency virus.
Data set [2] has as its system Human immunodeficiency virus 1. Nature of the data set: Antiviral activity against HIV1 3B in MT2 cells after 5 days. It is filed as functional, organism-based. Particulars: Human immunodeficiency virus 1, 3B, MT2, 120 h.
Data set [3] concerns Human immunodeficiency virus. The data set is described as follows: Antiviral activity against HIV in MT2 cells in presence of 35 mg/mL human serum albumin. It is filed as functional, organism-based. Particulars: Human immunodeficiency virus 1, MT2.
Data set [4] can be described thus: Aqueous solubility at pH 7.3. It is filed as physicochemical.
The nature of data set [5]: Oral bioavailability in rat. It is filed as ADME, organism-based. To be noted: in vivo.
Data set [6] can be described thus: Half life in iv dosed rat. It is filed as ADME, organism-based. Particulars: in vivo.
The nature of data set [7]: Total clearance in iv dosed rat. It is filed as ADME, organism-based. Particulars: in vivo.
Data set [8] can be described thus: Oral bioavailability in dog. It is filed as ADME, organism-based, Canis lupus familiaris. To be noted: in vivo.
Data set [9] can be described thus: Half life in iv dosed dog. To be noted: in vivo. It is filed as ADME, organism-based, Canis lupus familiaris.
The nature of data set [10]: Total clearance in iv dosed dog. It is filed as ADME, organism-based, Canis lupus familiaris. Particulars: in vivo.

Broadly, the IC50 is the concentration at which inhibition is half-maximal. A low value points to inhibition by little substance. What is called EC50 is the concentration giving half of the maximal effect. What is called solubility is how much of the substance goes into solution per volume. Higher therefore signals a readily soluble substance. A word on the bioavailability: it is dose-corrected exposure relative to a reference, in per cent. Lower therefore signals little systemic uptake. As usually defined, the half-life is the time needed for the level to fall by half in the phase considered. Low values mean fast loss, high ones slow loss. By clearance is commonly meant a measure of how efficiently the substance is removed, as volume per time. Consider `CN(C)S(=O)(=O)N(C)c1c2c(c(O)c3ncccc13)C(=O)N(Cc1ccc(F)cc1)C2`, for which inhibition in [1] was half-maximal at 62 nM (IC50). For the same molecule, the EC50 in [2] was determined as 3.1 nM; in [3] it was 8.4 nM. The concentration in solution in [4] (solubility) was 4.5 µM (≈ 2 µg/mL). Besides, the bioavailability in data set [5] is 13%; in data set [8], 16%. For the same molecule, the half-life was 54 min in [6] and 270 min in data set [9]. For the same molecule, the clearance was 3.83 mL/min/kg in [7] and 5.67 mL/min/kg in data set [10].
`CN(C)C(=O)C(=O)N(C)c1c2c(c(O)c3ncccc13)C(=O)N(Cc1ccc(F)cc1)C2`: inhibition in data set [1] was half-maximal at 265 nM (IC50). Further, the EC50 in [2] was found to be 31 nM.
Turning to `O=C1c2c(c(N3CCCS3(=O)=O)c3cccnc3c2O)CN1Cc1ccc(F)cc1`, in [1], half-maximal inhibition (IC50) was put at 13 nM. Besides, the EC50 stood at 1.4 nM in [2] and 49 nM in data set [3]. In addition, the solubility in data set [4] was 2.8 µM (≈ 1.2 µg/mL). The bioavailability came out at 4% in data set [5] and 8.3% in data set [8]. For the same molecule, the half-life in data set [6] is 36 min; in data set [9] it was 48 min. For the same molecule, the clearance is 25.5 mL/min/kg in data set [7] and 5 mL/min/kg in [10].
In the case of `CN(C)C(=O)N(C)c1c2c(c(O)c3ncccc13)C(=O)N(Cc1ccc(F)cc1)C2`, it took 71 nM to reach half-maximal inhibition in [1] (IC50). This molecule also showed an EC50 in [2] of 10 nM. The molecule further returned a solubility in data set [4] of 844 µM (≈ 345 µg/mL).
In [1], `Cc1nnc(C(=O)NC(C)(C)c2nc(C(=O)NCc3ccc(F)cc3)c(O)c(=O)n2C)o1` displayed an IC50 of 27 nM. Besides, a half-maximal effect in data set [2] (EC50) was put at 6 nM.
Turning to `CC(=O)N(C)c1c2c(c(O)c3ncccc13)C(=O)N(Cc1ccc(F)cc1)C2`, in [1], the IC50 turned out to be 100 nM. Further, the response in [2] was half-maximal at 47 nM (EC50).
In data set [1], `O=C1c2c(c(C(=O)N3CCOCC3)c3cccnc3c2O)CN1Cc1ccc(F)cc1` had an IC50 of 50 nM. The concentration giving a half-maximal response (EC50) in [3] turned out to be 54 nM.
